One data set is described as follows: in vitro. Particulars: human, human liver microsomes. Background: Microsomes from liver hold many membrane-bound enzymes, among them those of drug oxidation.
Data set [1] deals with M.tb strain H37Rv. Description: MABA: inhibition of growth of M.tb H37Rv under aerobic (replicating) conditions. In kind it is cell-based. Particulars: for anti-M.tb activity (in words): M.tb H37Rv, comparison with 1; for MIC90 / MIC: Mycobacterium tuberculosis, H37RV; for MIC: read-out: MIC90 MABA.
For data set [2] the following is noted: rat, in vivo.
For data set [3], the system named is M.tb strain H37Rv. As to the kind of experiment: LORA: inhibition of growth of M.tb H37Rv under non-replicating conditions. In kind it is cell-based. Particulars: Mycobacterium tuberculosis. As to the method:
The compounds were evaluated for their inhibition of growth (measured as MIC90 values in µg/mL) against M.tb (strain H37Rv) under both replicating (MABA)[16] or non-replicating (LORA)[17] conditions. […] In a search for less lipophilic analogues, we prepared and evaluated compounds where this phenyl B-ring unit was replaced with different heterocycles of varying lipophilicity (Table 1).

The conditions of data set [4]: human, microsomes.
Another data set addresses CYP 3A4 (Homo sapiens, UniProt P08684). As to the kind of experiment: Inhibition of CYP 3A4. In kind it is in vitro ADME. The following applies: 20 min exposure.
In data set [5] the test system is M.tb strain H37Rv. Description: MICs determined at Tibotec (slightly different protocol). In kind it is cell-based. Particulars: Mycobacterium tuberculosis, MICs determined at Tibotec (Mechelen, Belgium), read-out: MIC90 (MABA, footnote d). An excerpt:
Given that good activity had been reported for furan 2 (albeit in M. smegmatis),[11] we evaluated a series of both 2- and 3-furyl analogues bearing different C-unit substituents.

Molecules are shown by their SMILES. In brackets after ≈: the same amount, converted by molar mass. Some results are limits rather than exact numbers.

The half-life is the time in which the quantity being followed falls by half. Low readings indicate rapid decline, high ones slow decline. As a reminder, the MIC90 is the lowest concentration that inhibits either 90% of growth or 90% of the strains tested, depending on the study. Broadly, the IC50 is the concentration that inhibits the measured activity by half. Low values mean higher potency, high ones lower potency.

Sequence of CYP 3A4 (P08684 whole entry, species assumed): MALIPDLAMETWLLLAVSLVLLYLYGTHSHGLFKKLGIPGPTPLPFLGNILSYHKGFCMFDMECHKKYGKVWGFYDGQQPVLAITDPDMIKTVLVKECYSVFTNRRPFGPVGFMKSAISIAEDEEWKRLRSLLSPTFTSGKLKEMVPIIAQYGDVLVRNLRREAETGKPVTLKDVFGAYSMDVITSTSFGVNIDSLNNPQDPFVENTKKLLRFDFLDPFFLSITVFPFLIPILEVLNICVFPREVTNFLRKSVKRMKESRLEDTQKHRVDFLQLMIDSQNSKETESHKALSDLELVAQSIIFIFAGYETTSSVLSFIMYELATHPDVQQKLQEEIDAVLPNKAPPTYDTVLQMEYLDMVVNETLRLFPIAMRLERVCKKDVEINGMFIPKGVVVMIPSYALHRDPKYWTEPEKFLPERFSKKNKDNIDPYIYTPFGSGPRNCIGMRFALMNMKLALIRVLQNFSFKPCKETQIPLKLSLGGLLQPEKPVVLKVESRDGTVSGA

Turning to `COc1nc2ccc(Br)cc2cc1[C@@H](c1cc(C)c(C)s1)[C@@](O)(CCN(C)C)c1cccc(F)c1` [Compound 9], the half-life in “in vitro” stood at 60 min. Also, in the data set with M.tb strain H37Rv [1], the “anti-M.tb activity (in words)” value was “comparable activity to 1”, the MIC90 was determined as 0.06 µg/mL (≈ 0.108 µM) and the MIC fell in the range of 0.05 to 0.58 µg/mL (≈ 0.0897 to 1.04 µM). The “F(%) oral bioavailability” value in data set [2] amounted to 48%. This molecule also came in with an MIC90 against M.tb strain H37Rv [3] of 0.11 µg/mL (≈ 0.197 µM). In data set [4], this molecule registered a Clint of 12 µL/min/mg/protein. This molecule had an IC50 at CYP 3A4 of 10 µM.

In turn, `COc1nc2ccc(Br)cc2cc1[C@@H](c1ccnc(OC)c1OC)[C@@](O)(CCN(C)C)c1cccc(C)c1` [Compound 45] came in with a half-life in “in vitro” of 52 min. Moreover, the MIC90 amounted to 0.02 µg/mL (≈ 0.0345 µM) with M.tb strain H37Rv [1] and 0.04 µg/mL (≈ 0.0689 µM) in the data set with M.tb strain H37Rv [3]. The “F(%) oral bioavailability” value in data set [2] is on record as 40%. The molecule also registered a Clint in data set [4] of 13 µL/min/mg/protein. On CYP 3A4, the IC50 was over 10 µM.

Turning to `COc1nc2ccc(Br)cc2cc1[C@@H](c1ccc(C)s1)[C@@](O)(CCN(C)C)c1cccnc1OC` [Compound 12], in the data set on M.tb strain H37Rv [1], the “anti-M.tb activity (in words)” value was “effective inhibitors” and the MIC90 came out at 0.22 µg/mL (≈ 0.395 µM). This molecule also registered an MIC90 with M.tb strain H37Rv [3] of 0.52 µg/mL (≈ 0.934 µM).

Take `COc1nc2ccc(C#N)cc2cc1C(c1ccco1)C(O)(CCN(C)C)c1cccc(F)c1` (centres unmarked) [Compound 16]: the MIC90 with M.tb strain H37Rv [5] was found to be 1.79 µg/mL (≈ 3.9 µM).

For `COc1nc2ccc(Br)cc2cc1C(c1ccco1)C(O)(CCN(C)C)c1cccc(F)c1` (centres unmarked) [Compound 15], the MIC90 in the data set on M.tb strain H37Rv [5] turned out to be 0.74 µg/mL (≈ 1.44 µM).

For `COc1cccc(C(O)(CCN(C)C)C(c2ccco2)c2cc3cc(Br)ccc3nc2OC)c1OC` (centres unmarked) [Compound 18], the MIC90 in the data set on M.tb strain H37Rv [5] is 0.71 µg/mL (≈ 1.28 µM).

`COc1cccc([C@](O)(CCN(C)C)[C@@H](c2cc3cc(Br)ccc3nc2OC)c2cc(C)sc2C)n1` [Compound 5]: in the data set on M.tb strain H37Rv [1], the MIC90 is 0.12 µg/mL (≈ 0.21 µM) and the MIC was in the range of 0.05 to 0.58 µg/mL (≈ 0.0876 to 1.02 µM). The molecule further displayed an MIC90 against M.tb strain H37Rv [3] of 0.15 µg/mL (≈ 0.263 µM).

For the molecule `COc1nc2ccc(Br)cc2cc1[C@@H](c1cc(C)sc1C)[C@@](O)(CCN(C)C)c1cncc(C)c1` (racemic) [Compound 6], in the data set with M.tb strain H37Rv [1], the MIC90 was 0.58 µg/mL (≈ 1.05 µM) and the MIC was in the range of 0.05 to 0.58 µg/mL (≈ 0.0902 to 1.05 µM). In the data set with M.tb strain H37Rv [3], this molecule had an MIC90 of 0.3 µg/mL (≈ 0.541 µM).

Regarding `COc1cccc(C(O)(CCN(C)C)C(c2ccoc2)c2cc3cc(Br)ccc3nc2OC)c1OC` (centres unmarked) [Compound 26], the MIC90 in the data set with M.tb strain H37Rv [5] came to 1.16 µg/mL (≈ 2.09 µM).

In the case of `COc1cc([C@H](c2cc3cc(Br)ccc3nc2OC)[C@@](O)(CCN(C)C)c2cccc(F)c2)cnc1OC` [Compound 43], the half-life in “in vitro” stood at 19 min. In addition, the MIC90 with M.tb strain H37Rv [1] was found to be 0.47 µg/mL (≈ 0.804 µM); with M.tb strain H37Rv [3], 0.54 µg/mL (≈ 0.924 µM). Moreover, in data set [2], the “F(%) oral bioavailability” value came out at 36%. Besides, the Clint in data set [4] was 36 µL/min/mg/protein. At CYP 3A4, this molecule registered a half-inhibitory concentration (IC50) of over 10 µM.

`COc1ncccc1[C@H](c1cc2cc(C#N)ccc2nc1OC)[C@@](O)(CCN(C)C)c1cccc(C#N)c1` [Compound 34]: the MIC90 turned out to be 0.38 µg/mL (≈ 0.749 µM) in the data set on M.tb strain H37Rv [1] and 0.82 µg/mL (≈ 1.62 µM) against M.tb strain H37Rv [3].

`COc1nc2ccc(Br)cc2cc1C(c1ccco1)C(O)(CCN(C)C)c1cccc(OC(F)(F)F)c1` (centres unmarked) [Compound 17]: in the data set with M.tb strain H37Rv [5], the MIC90 was determined as 0.76 µg/mL (≈ 1.31 µM).

With `COc1nc2ccc(Br)cc2cc1C(c1ccc(C)s1)C(O)(CCN(C)C)c1cccc(F)c1` (centres unmarked) [Compound 11], the MIC90 in the data set with M.tb strain H37Rv [5] was 0.47 µg/mL (≈ 0.865 µM).

Take `COc1ccc(C(c2cc3cc(C#N)ccc3nc2OC)C(O)(CCN(C)C)c2cccc(F)c2)s1` (centres unmarked) [Compound 14]: the MIC90 with M.tb strain H37Rv [5] stood at 0.7 µg/mL (≈ 1.38 µM).

For `COc1nc2ccc(Br)cc2cc1[C@@H](c1cc(C)sc1C)[C@@](O)(CCN(C)C)c1cccc(C#N)c1` [Compound 3, 3-(1-(6-Bromo-2-methoxyquinolin-3-yl)-4-(dimethylamino)-1-(2,5-dimethylthiophen-3-yl)-2-hydroxybutan-2-yl)benzonitrile], in the data set on M.tb strain H37Rv [1], the MIC90 is 0.12 µg/mL (≈ 0.213 µM) and the MIC was in the range of 0.05 to 0.58 µg/mL (≈ 0.0886 to 1.03 µM).

`COc1cccc([C@](O)(CCN(C)C)[C@@H](c2cc3cc(Br)ccc3nc2OC)c2ccnc(OC)c2OC)c1OC` [Compound 50]: the MIC90 with M.tb strain H37Rv [5] came to 0.21 µg/mL (≈ 0.335 µM).

Take `COc1ncccc1[C@H](c1cc2cc(Br)ccc2nc1OC)[C@@](O)(CCN(C)C)c1cccc(C#N)c1` [Compound 33]: the MIC90 in the data set with M.tb strain H37Rv [1] turned out to be 0.34 µg/mL (≈ 0.606 µM); in the data set with M.tb strain H37Rv [3], 0.75 µg/mL (≈ 1.34 µM).

`COc1cccc([C@](O)(CCN(C)C)[C@@H](c2cc3cc(Br)ccc3nc2OC)c2ccnc(OC)c2OC)c1` [Compound 47]: in the data set with M.tb strain H37Rv [1], the “anti-M.tb activity (in words)” value is “retain the potency of 1” and the MIC90 was under 0.02 µg/mL.

With `COc1nc2ccc(Br)cc2cc1[C@@H](c1cncc(C)c1)[C@@](O)(CCN(C)C)c1cccc(C#N)c1` [Compound 41], the MIC90 turned out to be 1.32 µg/mL (≈ 2.42 µM) in the data set with M.tb strain H37Rv [1] and 3.38 µg/mL (≈ 6.2 µM) in the data set with M.tb strain H37Rv [3].

For `COc1nc2ccc(Br)cc2cc1[C@@H](c1ccnc(OC)c1OC)[C@@](O)(CCN(C)C)c1cccc(OC(F)F)c1` [Compound 48], in “in vitro”, the half-life stood at 61 min. Also, in the data set on M.tb strain H37Rv [1], the “anti-M.tb activity (in words)” value was “retain the potency of 1” and the MIC90 is under 0.02 µg/mL. The Clint in data set [4] is reported as 11 µL/min/mg/protein. For the same molecule, the IC50 against CYP 3A4 is over 10 µM.

With `COc1nc2ccc(C#N)cc2cc1C(c1ccoc1)C(O)(CCN(C)C)c1cccc(F)c1` (centres unmarked) [Compound 23], the MIC90 with M.tb strain H37Rv [5] stood at 1.08 µg/mL (≈ 2.35 µM).

The record behind these values is paper PMC5696560 (Bioorganic & Medicinal Chemistry Letters, 2017).
